Test results: PMC3629565, “Sphingolipid synthesis and scavenging in the intracellular apicomplexan parasite, Toxoplasma gondii” (Molecular and Biochemical Parasitology, 2013)

Molecular target: T1, TgSLS (Toxoplasma gondii, UniProt A0A2U9EWT7)
T1 construct: parasites elsewhere RH, locus tag of ME49), pRS426MET25 in S. cerevisiae YPH499-HIS-GAL-AUR1, CHAPS-washed microsomes; no tag mentioned
T1 sequence (A0A2U9EWT7 1-427): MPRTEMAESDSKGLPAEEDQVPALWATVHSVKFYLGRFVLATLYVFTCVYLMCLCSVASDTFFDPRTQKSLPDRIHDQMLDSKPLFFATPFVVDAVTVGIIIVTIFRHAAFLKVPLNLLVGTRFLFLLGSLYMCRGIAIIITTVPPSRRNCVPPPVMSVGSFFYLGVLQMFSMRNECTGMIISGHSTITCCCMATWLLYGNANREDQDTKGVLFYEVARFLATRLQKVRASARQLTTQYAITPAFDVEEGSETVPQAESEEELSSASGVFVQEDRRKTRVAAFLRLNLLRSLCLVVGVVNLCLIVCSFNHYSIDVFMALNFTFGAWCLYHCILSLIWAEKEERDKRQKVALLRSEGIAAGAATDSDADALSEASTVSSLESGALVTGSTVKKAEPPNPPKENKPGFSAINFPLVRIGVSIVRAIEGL
Assay: IPC formation by CHAPS-washed yeast microsomes, HPTLC fluorescence
Format: biochemical
Details: acceptor substrate at 5 μM; donor 1 mM bovine liver phosphatidylinositol; 10 mM EDTA, 6 mg/ml BSA, 30 °C, 60 min; labelled compound

## CCCCCCCCCCCCC/C=C/[C@@H](O)[C@H](CO)NC(=O)CCCCCNc1ccc([N+](=O)[O-])c2nonc12 [NBD C6-ceramide]
  IPC formation by CHAPS-washed yeast microsomes, HPTLC fluorescence: reaction of CHAPS-washed TgSLS extract with acceptor substrate NBD-C6-ceramide
